# According to patent US4616038A, “Combination of thienamycin-type antibiotics with dipeptidase inhibitors” (Merck & Co., Inc., priority 1985, dated 1986):
# Target: T1, renal dipeptidase (E.C.3.4.13.11) (Sus scrofa, UniProt P22412)
# T1 construct: solubilized preparation of dipeptidase isolated from hog kidneys; from tissue; host or cells: hog kidney
# T1 sequence (P22412 17-409): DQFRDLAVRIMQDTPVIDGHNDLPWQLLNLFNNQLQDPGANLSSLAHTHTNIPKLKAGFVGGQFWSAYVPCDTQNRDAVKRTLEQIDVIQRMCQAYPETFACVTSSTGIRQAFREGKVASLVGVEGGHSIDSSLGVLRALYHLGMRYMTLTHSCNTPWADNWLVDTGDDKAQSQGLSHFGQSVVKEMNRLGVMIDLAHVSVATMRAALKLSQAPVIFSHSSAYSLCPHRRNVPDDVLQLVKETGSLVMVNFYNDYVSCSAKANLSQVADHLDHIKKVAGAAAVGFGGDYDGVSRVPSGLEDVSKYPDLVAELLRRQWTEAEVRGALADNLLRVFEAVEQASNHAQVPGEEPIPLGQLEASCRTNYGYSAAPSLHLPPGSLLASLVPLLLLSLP
# Assay: Inhibition of glycyldehydrophenylalanine (GDP) hydrolysis by renal dipeptidase in vitro
# Assay type: biochemical, pig (hog)
# Settings: not given
# Procedure: This measured the ability of compounds to inhibit hydrolysis of glycyldehydrophenylalanine (GDP) by a solubilized preparation of dipeptidase isolated from hog kidneys The procedure is as follows to a 1 ml. system containing 50 mM "MOPS" (3-(N-morpholino)propanesulfonic acid) buffer, pH 7.1, is added 5 μg of lyophilized enzyme, and the test compound at a final concentration of 0.1 mM. After a five minute incubation at 37° C., GDP is added to a final concentration of 0.05 mM. Incubation is continued for 10 minutes, at 37° C. and hydrolysis of GDP is measured by the change in optical density with time at 275 nm. Inhibition of the enzyme is gauged by comparison to a standard run containing no inhibitor and is expressed as the inhibitor binding constant, Ki.
# A 1 ml. system of 50 mM "MOPS" buffer, pH 7.1, is used. To this is added 5 μg of the pig renal enzyme and an amount of the test compound to bring its final concentration to 0.1 mM. After a five minute incubation at 37° C., an amount of GDP is added to bring its final concentration to 0.05 mM. The system is again incubated for 10 minutes, at 37° C. Hydrolysis of GDP is measured by its change in optical density with time at 275 nm. Inhibition of the enzyme is gauged by comparison to a standard run containing no inhibitor and is presented as percent inhibition.
row,SMILES,Ki [µM]
1,CC1(C)CC1C(=O)N/C(=C\CCCCSC[C@H](N)C(=O)O)C(=O)O (some centres unmarked) [Compound 17],0.21

# Same assay, conditions: 10^-4 M inhibitor; 0.05 mM GDP; pH 7.1; 37° C.
row,inhibition at 100 µM [%],SMILES
1,98,CC(C)/C=C(\NC(=O)C1CC1(C)C)C(=O)O (centres unmarked) [Compound 41]

# Same assay, conditions: concentration producing 50% inhibition; substrate GDP 0.05 mM; pH 7.1; 37° C.; read-out: Ki
row,Ki [µM],SMILES
1,0.5,CC1(C)CC1C(=O)N/C(=C\CCS(C)(=O)=O)C(=O)O (centres unmarked) [Compound 55]
2,0.15,CC1(C)CC1C(=O)N/C(=C\CC1CCCCC1)C(=O)O (centres unmarked) [Compound 52]
3,0.45,C/C=C(\NC(=O)C1CC1(C)CC)C(=O)O (centres unmarked) [Compound 40]
4,0.33,CC1(C)CC1C(=O)N/C(=C\CCc1ccccc1)C(=O)O (centres unmarked) [Compound 53]
5,1.11,CC1(C)CC1C(=O)N/C(=C\CCCCC[N+](C)(C)C)C(=O)[O-] (centres unmarked) [Compound 14]
6,0.12,CSCC/C=C(\NC(=O)C1CC1(C)C)C(=O)O (centres unmarked) [Compound 54]
7,0.86,C/C=C(\NC(=O)C1CC1(CC)CC)C(=O)O (centres unmarked) [Compound 42]
8,0.18,CC/C=C(\NC(=O)C1CC1(C)C)C(=O)O (centres unmarked) [Compound 45]
9,0.28,COCCC/C=C(\NC(=O)C1CC1(C)C)C(=O)O (centres unmarked) [Compound 60]
10,0.72,CC(=N)NCCCCC/C=C(\NC(=O)C1CC1(C)C)C(=O)O (centres unmarked) [Compound 15]
11,0.08,CCCCC/C=C(\NC(=O)[C@H]1CC1(C)C)C(=O)O [Compound 66]
12,2.6,"CCCCC/C=C(\NC(=O)CC(C)C)C(=O)O [Compound 39, Z--isovaleramido-2-octenoic acid]"
13,0.17,CCCCC/C=C(\NC(=O)C1CC1(C)C)C(=O)O (centres unmarked) [Compound 50]
14,0.18,C[N+](C)(C)CCCCC/C=C(\NC(=O)C1CC1(Cl)Cl)C(=O)[O-] (centres unmarked) [Compound 13]
15,0.15,CC(C)CC/C=C(\NC(=O)C1CC1(C)C)C(=O)O (centres unmarked) [Compound 63]
16,0.14,CCCCCCCCCC/C=C(\NC(=O)C1CC1(C)C)C(=O)O (centres unmarked) [Compound 58]
17,0.34,CC(C)(C)C/C=C(\NC(=O)C1CC1(C)C)C(=O)O (centres unmarked) [Compound 62]
18,0.23,CC(C)C/C=C(\NC(=O)C1CC1(C)C)C(=O)O (centres unmarked) [Compound 48]
19,0.54,CC(C)/C=C(\NC(=O)C1CC1(C)C)C(=O)O (centres unmarked) [Compound 41]
20,0.11,CCCC/C=C(\NC(=O)C1CC1(C)C)C(=O)O (centres unmarked) [Compound 49]
21,0.11,CCC/C=C(\NC(=O)C1CC1(C)C)C(=O)O (centres unmarked) [Compound 47]

# Further lines, the compound ahead of its results:
row,SMILES,Ki [µM]
1,C/C=C(\NC(=O)C1CCCC1)C(=O)O [Compound 24],30
2,C/C=C(\NC(=O)CC(C)CC(C)(C)C)C(=O)O (centres unmarked) [Compound 5],4.4
3,O=C(O)CC/C=C(\NC(=O)C1CC1)C(=O)O [Compound 33],5
4,C/C=C(\NC(=O)CC(C)CCOC)C(=O)O (centres unmarked) [Compound 34],9
5,C/C=C(\NC(=O)CCCCCBr)C(=O)O [Compound 35],19
6,C/C=C(\NC(=O)C1CC1C)C(=O)O (centres unmarked) [Compound 3],1.7
7,CC1(C)CC1C(=O)N/C(=C\c1ccccc1)C(=O)O (centres unmarked) [Compound 46],0.62
8,C/C=C(\NC(=O)CCCC1CCCCC1)C(=O)O [Compound 21],30
9,C/C=C(\NC(=O)CC(C)CC)C(=O)O (centres unmarked) [Compound 11],10
10,C/C=C(\NC(=O)C1CCC1)C(=O)O [Compound 8],6.2
11,C/C=C(\NC(=O)CCCc1ccccc1)C(=O)O [Compound 37],11
12,"C/C=C(\NC(=O)CCC)C(=O)O [Compound 20, Z-2-butyramido-2-butenoic acid]",30
13,CC/C=C(\NC(=O)CC(C)C)C(=O)O [Compound 4],3.2
14,C/C=C(\NC(=O)C1CC1C(C)(C)C)C(=O)O (centres unmarked) [Compound 38],6.5
15,C/C=C(\NC(=O)C1C(C)C1C)C(=O)O (centres unmarked) [Compound 6],4.6
16,C/C=C(\NC(=O)CC1CCC1)C(=O)O [Compound 9],6.6
17,"C/C=C(\NC(=O)CCCCCCC)C(=O)O [Compound 19, Z-2-octanamido-2-butenoic acid]",26

# Same assay, conditions: resolved racemic Z-2-(2,2-dimethylcyclopropanecarboxamido)-2-octenoic acid
row,SMILES,activity of resolved isomers
1,"CCCCC/C=C(\NC(=O)[C@H]1CC1(C)C)C(=O)O [dextrorotatory isomer, Z-2-(2,2-dimethylcyclopropanecarboxamido)-2-octenoic acid]",The activity resides in the dextrorotatory isomer
